Results reported in paper PMC3323675 (Biochemistry, 2012).

Key:
[1] = biological target: T1, geranyl diphosphate C-methyltransferase (GPPMT) (Streptomyces coelicolor, UniProt Q9F1Y5); assay: X-ray crystal structure, […] Å; assay type: binding; conditions: with SAH and Mg2+; monomers A, D, H, J only, partial occupancy
[2] = biological target: T1, geranyl diphosphate C-methyltransferase (GPPMT); assay: radiometric methyl transfer, pentane extraction, scintillation counting; assay type: biochemical; conditions: 10 mM MgCl2, pH 7.0, 30 °C
[3] = biological target: T1, geranyl diphosphate C-methyltransferase (GPPMT); assay: X-ray crystal structure, […] Å; assay type: binding; conditions: with SAH and Mg2+; isoprenoid substrate site

T1 sequence (Q9F1Y5 whole entry): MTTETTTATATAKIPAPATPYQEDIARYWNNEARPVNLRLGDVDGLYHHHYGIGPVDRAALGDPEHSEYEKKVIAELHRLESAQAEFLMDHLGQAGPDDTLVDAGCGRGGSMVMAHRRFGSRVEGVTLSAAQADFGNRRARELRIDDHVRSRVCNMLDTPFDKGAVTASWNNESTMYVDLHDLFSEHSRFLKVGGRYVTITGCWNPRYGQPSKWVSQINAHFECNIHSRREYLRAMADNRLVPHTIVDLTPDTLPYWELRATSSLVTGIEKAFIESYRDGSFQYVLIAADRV

Structure (SMILES): CC(C)=CCC/C(C)=C/COP(=O)(O)OP(=O)(O)O [GPP, geranyl diphosphate]
- X-ray crystal structure, 2.05 Å [1]: sufficient electron density to model GPP is observed only in monomers A, D, H, and J
- KM ([2]; 60 µM SAM): Kinetic parameters (Vmax and KM) were obtained for GPP and SAM

Structure (SMILES): CC(C)=CCC/C(C)=C/CSP(=O)(O)OP(=O)(O)O [GSPP, geranyl-S-thiolodiphosphate]
- X-ray crystal structure, 1.82 Å [3]: GSPP is bound with full occupancy in all monomers

Structure (SMILES): C[S+](CC[C@H](N)C(=O)O)C[C@H]1O[C@@H](n2cnc3c(N)ncnc32)[C@H](O)[C@@H]1O (stereo partly drawn) [SAM, S-adenosyl-L-methionine]
- KM ([2]; 60 µM GPP, labelled compound): Kinetic parameters (Vmax and KM) were obtained for GPP and SAM
